# Molecular target: T1, SOS1 binding to KRAS G12C (Homo sapiens, UniProt Q07889)
# T1 construct: consisting of amino acid residues 564 to 1049 which are the catalytic domain; purchased Reaction Biology Corporation MSC-11-502 (SOS1-Strep); MSC-11-538 (KRAS G12C)
# T1 sequence (Q07889 564-1049): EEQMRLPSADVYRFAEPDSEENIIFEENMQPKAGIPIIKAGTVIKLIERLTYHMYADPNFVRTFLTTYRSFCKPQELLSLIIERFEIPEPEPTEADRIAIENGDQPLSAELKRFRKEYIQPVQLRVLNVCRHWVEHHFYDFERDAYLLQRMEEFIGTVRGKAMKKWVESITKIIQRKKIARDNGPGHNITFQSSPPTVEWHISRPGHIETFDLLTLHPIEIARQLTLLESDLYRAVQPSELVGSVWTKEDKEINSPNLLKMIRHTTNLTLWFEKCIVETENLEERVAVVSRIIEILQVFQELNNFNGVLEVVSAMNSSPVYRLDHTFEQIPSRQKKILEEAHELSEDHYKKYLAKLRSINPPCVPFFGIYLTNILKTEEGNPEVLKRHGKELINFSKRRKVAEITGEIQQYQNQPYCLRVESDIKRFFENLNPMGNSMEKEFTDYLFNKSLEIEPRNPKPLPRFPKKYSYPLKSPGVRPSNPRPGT
# Assay: SOS1 GTP substitution inhibition test (HTRF/TR-FRET, KRAS G12C-SOS1 binding inhibitory ability)
# Type: biochemical
# Conditions: HTRF, GST-KRAS G12C (2-169), SOS1-Strep (564-1049), 1.6, 8, 40, 200, 1,000 nM
# Experimental: In order to determine whether the substitution function of SOS1 binding to KRAS G12C is inhibited by the above-described example compounds, a homogeneous time-resolved fluorescence (HTRF) test was performed using G12C(#MSC-11-538) and SOS1-Strep(#MSC-11-502) purchased from Reaction Biology Corporation (MA, USA). The activity of SOS1 enzyme was determined by measuring the amount of GTP bound to KRAS G12C proteins, using the principle of time-resolved fluorescence energy transfer (TR-FRET). Based on the principle that terbium bound to the GST-binding antibody of the GST-KRAS G12C protein acts as a donor of fluorescence resonance energy transfer (FRET), and the GTP bound to the KRAS G12C protein is labeled with the fluorescent agent DY-647P1 and acts as a receiver, when the more GTP is bound to the KRAS G12C protein by the substitution reaction of SOS1 according to this test, the higher HTRF or FRET signal is measured. To summarize, glutathione S-transferase (GST)-tagged KRAS G12C proteins (consisting of amino acid residues 2 to 169) required for the reaction, streptavidin-tagged SOS1 proteins (consisting of amino acid residues 564 to 1049 which are the catalytic domain), anti-GST antibody (#61[…]) purchased from CISBIO corporation, nucleic acid (#NU-820-647P1) purchased from Jena Bioscience GmbH were mixed in a buffer solution formed from 10 mM HEPES pH7.4, 150 mM NaCl, 5 mM MgCl2, and 1 mM dithiothreitol (DTT), and the mixture was added to a 384-well plate and reacted at room temperature. Next, FRET signals were measured with a Perkin Elmer Envision microplate reader. In this case, an excitation signal (excitation) was measured at 320 nm, and an emission signal (emission) was measured at 615/665 nm. The fluorescence measurement value when the SOS1 protein was not included was calculated as a background signal value, and the background signal value was subtracted from all of the measured HTRF values. The fluorescence measurement value when the synthesized compound was not included was measured as a control value, and this value was selected as a reference point of 100%. For each of the example compounds, fluorescence was measured at concentrations of 1.6, 8, 40, 200, and 1,000 nM (5 points, 5-fold), and the 50% activity inhibition value (IC50) of each of the compounds was calculated using GraphPad Prism. When the IC50 value was 50 nM or less, the inhibitory ability was denoted as +++. When the IC50 value was more than 50 nM and 100 nM or less, the inhibitory ability was denoted as ++. When the IC50 value was more than 100 nM, the inhibitory ability was denoted as +.
row,SMILES,IC50 [nM]
1,"COc1cc2c(N[C@H](C)c3cc(N)cc(C(F)(F)F)c3)nc(C)nc2cc1C(=O)N1C[C@@H](C)N[C@@H](C)C1 [Example 3, (4-(((R)-1-(3-amino-5-(trifluoromethyl)phenyl)ethyl)amino)-6-methoxy-2-methylquinazoline-7-yl)((3R, S)-3,5-dimethylpiperazin-1-yl)methanone]",> 100
2,"COc1cc2c(N[C@H](C)c3cccc(C(F)(F)F)c3)nc(C)nc2cc1C(=O)N1CCOCC1 [Example 15, (R)-(6-methoxy-2-methyl-4-((1-(3-(trifluoromethyl)phenyl)ethyl)amino)quinazolin-7-yl)(morpholino)methanone]",> 100
3,"COc1cc2c(N[C@H](C)c3cc(N)cc(C(F)(F)F)c3)nc(C)nc2cc1C(=O)N1CCOCC1 [Example 1, (R)-(4-((1-(3-amino-5-(trifluoromethyl)phenyl)ethyl)amino)-6-methoxy-2-methylquinazoline-7-yl)(morpholino)methanone]",≤ 50
4,COc1cc2c(N[C@H](C)c3cc(N)cc(F)c3)nc(C)nc2cc1C(=O)N1CCOCC1 [Example 17],≤ 50
5,COc1cc2c(NC(C)c3cc(-c4ccccc4CO)cs3)nc(C)nc2cc1C(=O)N1CCOCC1 (stereo not shown) [Example 14],> 100
6,"COc1cc2c(N[C@H](C)c3cc(N)cc(C(F)(F)F)c3)nc(C)nc2cc1C(=O)N1CC(F)C1 [Example 11, (R)-(4-((1-(3-amino-5-(trifluoromethyl)phenyl)ethyl)amino)-6-methoxy-2-methylquinazoline-7-yl)(3-fluorazetidine-1-yl)methanone]",> 100
7,"COc1cc2c(N[C@H](C)c3cccc(N)c3OC)nc(C)nc2cc1C(=O)N1CCOCC1 [Example 19, (R)-(4-((1-(3-amino-2-methoxyphenyl)ethyl)amino)-6-methoxy-2-methylquinazolin-7-yl)(morpholino)methanone]",> 100
8,"COc1cc2c(N[C@H](C)c3cc(N)cc(C(F)(F)F)c3)nc(C)nc2cc1C(=O)N1CCNCC1 [Example 9, (R)-(4-((1-(3-amino-5-(trifluoromethyl)phenyl)ethyl)amino)-6-methoxy-2-methylquinazoline-7-yl)(piperazine-1-yl)methanone]",≤ 50
9,"COc1cc2c(N[C@H](C)c3cccc(C(F)F)c3F)nc(C)nc2cc1C(=O)N1CCOCC1 [Example 6, (R)-(4-((1-(3-(difluoromethyl)-2-fluorophenyl)ethyl)amino)-6-methoxy-2-methylquinazoline-7-yl)(morpholino)methanone]",50 to 100
10,"COc1cc2c(N[C@H](C)c3cccc4c3CCC4)nc(C)nc2cc1C(=O)N1CCOCC1 [Example 23, (R)-(4-((1-(2,3-dihydro-1H-inden-4-yl)ethyl)amino)-6-methoxy-2-methylquinazolin-7-yl)(morpholino)methanone]",50 to 100
11,"COc1cc2c(N[C@H](C)c3cc(N)cc(C(F)F)c3F)nc(C)nc2cc1C(=O)N1CCOCC1 [Example 26, (R)-(4-((1-(5-amino-3-(difluoromethyl)-2-fluorophenyl)ethyl)amino)-6-methoxy 2-methylquinazolin-7-yl)(morpholino)methanone]",≤ 50
12,COc1cc2c(NC(C)c3cc(-c4ccccc4CN)cs3)nc(C)nc2cc1C(=O)N1CCOCC1 (stereo not shown) [Example 13],50 to 100

# Other lines, results leading:
row,IC50 [nM],SMILES
1,> 100,"Cc1nc(N[C@H](C)c2cc(N)cc(C(F)(F)F)c2)c2cc(N3CCCC3)c(C(=O)N3CCOCC3)cc2n1 [Example 42, (R)-(4-((1-(3-amino-5-(trifluoromethyl)phenyl)ethyl)amino)-2-methyl-6-(pyrrolidin-1-yl)quinazoline-7-yl)(morpholino)methanone]"
2,50 to 100,"COc1cc2c(N[C@H](C)c3cc(N)cc(-c4cncs4)c3)nc(C)nc2cc1C(=O)N1CCOCC1 [Example 30, (R)-(4-((1-(3-amino-5-(thiazole-5-yl)phenyl)ethyl)amino)-6-methoxy-2-methylquinazolin-7-yl)(morpholino)methanone]"
3,> 100,"COc1cc2c(N[C@H](C)c3cc(N)cc(C(F)(F)F)c3)nc(CF)nc2cc1C(=O)N1CCOCC1 [Example 33, (R)-(4-((1-(3-amino-5-(trifluoromethyl)phenyl)ethyl)amino)-2-(fluoromethyl)-6-methoxyquinazolin-7-yl)(morpholino)methanone]"
4,50 to 100,"CCNc1cc2c(N[C@H](C)c3cc(N)cc(C(F)F)c3F)nc(C)nc2cc1C(=O)N1CCOCC1 [Example 52, (R)-(4-((1-(5-amino-3-(difluoromethyl)-2-fluorophenyl)ethyl)amino)-6-(ethylamino)-2-methylquinazoline-7-yl)(morpholino)methanone]"
5,> 100,"COc1cc2c(N[C@H](C)c3cc(N)cc(C(F)(F)F)c3)nc(C)nc2cc1NC1CCOCC1 [Example 69, (R)-NM-(1-(3-amino-5-(trifluoromethyl)phenyl)ethyl)-6-methoxy-2-methyl-N^7-(tetrahydro-2H-pyran-4-yl)quinazoline-4,7-diamine]"
6,> 100,"COc1cc2c(N[C@H](C)c3cc(N)cc(C(F)F)c3F)nc(C)nc2cc1OC1CCOCC1 [Example 37, (R)-N-(1-(5-amino-3-(difluoromethyl)-2-fluorophenyl)ethyl)-6-methoxy-2-methyl-7-((tetrahydro-2H-pyran-4-yl)oxy)quinazoline-4-amine]"
7,50 to 100,"CCNc1cc2c(N[C@H](C)c3cc(N)cc(C(F)(F)F)c3)nc(C)nc2cc1C(=O)N1CCOCC1 [Example 46, (R)-(4-((1-(3-amino-5-(trifluoromethyl)phenyl)ethyl)amino)-6-(ethylamino)-2-methylquinazoline-7-yl)(morpholino)methanone]"
8,50 to 100,"CNc1cc2c(N[C@H](C)c3cc(C)cc(N)c3)nc(C)nc2cc1C(=O)N1CCOCC1 [Example 65, (R)-(4-((1-(3-amino-5-methylphenyl)ethyl)amino)-2-methyl-6-(methylamino)quinazolin-7-yl)(morpholino)methanone]"
9,50 to 100,"Cc1nc(N[C@H](C)c2cc(N)cc(C(F)(F)F)c2)c2cc(N(C)C)c(C(=O)N3CCOCC3)cc2n1 [Example 41, (R)-(4-((1-(3-amino-5-(trifluoromethyl)phenyl)ethyl)amino)-6-(dimethylamino)-2-methylquinazoline-7-yl)(morpholino)methanone]"
10,50 to 100,COc1cc2c(N[C@H](C)c3cc(N)cc(C(F)(F)F)c3)nc(C)nc2cc1OC1CCOCC1 [Example 36]
11,50 to 100,"CNc1cc2c(N[C@H](C)c3cc(N)cc(-c4ccoc4)c3)nc(C)nc2cc1C(=O)N1CCOCC1 [Example 54, (R)-(4-((1-(3-amino-5-(furan-3-yl)phenyl)ethyl)amino)-2-methyl-6-(methylamino)quinazolin-7-yl)(morpholino)methanone]"
12,≤ 50,"CNc1cc2c(N[C@H](C)c3cc(N)cc(C(F)(F)F)c3)nc(C)nc2cc1C(=O)N1CC2COCC2C1 (stereo partly drawn) [Example 58, (4-(((R)-1-(3-amino-5-(trifluoromethyl)phenyl)ethyl)amino)-2-methyl-6-(methylamino)quinazoline-7-yl)(tetrahydro-1H-furo[3,4-c]pyrrol-5(3H)-yl)methanone]"
13,> 100,"COCCOc1cc2c(N[C@H](C)c3cc(N)cc(C(F)(F)F)c3)nc(C)nc2cc1C(=O)N1CCOCC1 [Example 32, methyl (R)-(4-((1-(3-amino-5-(trifluoromethyl)phenyl)ethyl)amino)-6-(2-methoxyethoxy)-2-methylquinazolin-7-yl)(morpholino)methanone]"
